Values after ≈ are worked out from the molar mass of the structure shown.
Columns and labels:
E. coli ATCC 25922 = test: Antibacterial effect (MIC), micro-liquid dilution method (CLSI); assay type: cell-based; details: Escherichia coli, ATCC25922
Description: (§1) Three strains Enterobacteriaceae E. coli ATCC 25922, E. coli ATCC BAA-2523, K. pneumonia ATCC BAA-1705 were used to determine the Minimum Inhibitory Concentration (MIC) of each compound by the micro-liquid dilution method according to the requirements of the Institute of Clinical and Laboratory Standard (CLSI). 2-fold series diluted compounds (with a final concentration range […]) were added to a round bottom 96-well plate (Catalog #3788, Corning). A single clone of fresh bacteria on the plate of Mueller Hinton II Agar (MHA, Cat. No. 211438, BD BBL™) after overnight culture was picked and suspended in sterile saline to adjust the concentration to 1×10^8 CFU/mL, and then diluted to 5×10^5 CFU/mL by Cation-Adjusted Mueller Hinton II Broth (MHB, Catalog #212332, BD BBL™), 100 μL of which was added to the round bottom 96-well plate containing the drug. The plate was inverted and incubated at 37° C. for 20-24 hours, and the MIC value was read. The lowest drug concentration that inhibits bacterial growth was defined as MIC.

E. coli ATCC BAA-2523 = test: as above; assay type: cell-based; details: Escherichia coli, ATCCBAA2523
Description: as §1

[1] = system: K. pneumoniae ATCC BAA-1705; test: as above; assay type: cell-based; details: Klebsiella pneumoniae, ATCCBAA1705
Description: as §1

[2] = system: auditory function in guinea pigs; test: Auditory safety: compound action potential (CAP) in guinea pigs; assay type: in vivo; details: guinea pig, in vivo, sc, 100 mg/kg
Description: (§2) Healthy adult guinea pigs (150-250 g) were employed as the research objects, and were randomly divided into saline control group, gentamicin group, compound Plazomicin group and Compound 1 group, with 8 animals in each group. Subcutaneous administration is used, and the following assays were carried out during and after the administration for 14 consecutive days: • 1. To analyze the effects of different drugs on the auditory function of guinea pigs, the compound action potential (CAP) of animals was recorded on the 14th day (29th day, i.e., 4 weeks) after administration. The results obtained were analyzed and the changes of the threshold shift, amplitude, latency and other indicators among different treatment groups were compared. • 2. After the different groups of animals were processed and the auditory function data thereof were collected, the cochlea of the animals was taken out for fixation and staining. Surface preparation of basilar membrane of the cochlea on one side was performed to count the loss of hair cells so as to make a cochlea map, and the cochlea on the other side was decalcified and frozen sectioned. The density of spiral ganglion neurons was counted and compared among groups. Research Results: 1. Administration Method and Treatment
(§3) Gentamicin from Dalian Meilun Biotechnology Co., Ltd., and Plazomicin and Compound 1 from WuXi AppTec (WuHan) Co., Ltd. are used, the solution of which were prepared just before use each time by using saline for dissolution to the concentration of 50 mg/mL, and the injection dose was 100 mg/kg body weight. Method: subcutaneous injection, and confirmation of no liquid leakage after each injection.
The compound action potential (CAP) was tested and recorded when clicks and different frequencies of pure tones (1 KHz-32 kHz) were applied to each group of animals, and variations in amplitude and latency were mainly compared when clicks and medium and high frequency pure tones (16, 32 kHz) were applied. The magnitude of amplitude reflects the responsiveness of hair cells and auditory nerves. The larger the amplitude and the greater the slope of the I/O curve were, the better the responsiveness and the better the function were. In addition, the cochlea from apical turn to basal turn was responsive to sounds from low-frequency to high-frequency respectively, which is the frequency correspondence of the cochlear basilar membrane. The functional changes to different frequencies correspond to the different structural and functional changes of the cochlea fromapical turn to basal turn. The length of latency was also related to the function of the hair cells and auditory nerve response. Generally speaking, increasing of the threshold value when the cochlea was injured would inevitably lead to the extension of latency. […] In other words, the extension of latency reflected the decrease of response function. The previous ototoxicity of aminoglycoside antibiotics was mainly concentrated in the high-frequency area. In this study, the gentamicin group was consistent with previous results, as summarized below.

spiral ganglion neurons = test: Auditory safety: density of spiral ganglion neurons; assay type: in vivo, guinea pigs; details: guinea pig, in vivo, sc, 100 mg/kg
Description: as §2, §3
The cochlea of the guinea pig was defined as Turn 1, Turn 2, Turn 3, and Turn 4 from the basal to the apical turn. The spiral ganglion neurons (SGNs) were stained with TuJ on frozen sections, and the density thereof in a specific area were counted and compared between groups. […] Through the two-way ANOVA, there was a significant difference between the groups, F(3, 74)=35.43, p<0.0001 (see FIG. 7).

## CN[C@@H]1[C@@H](O)[C@@H](O[C@@H]2[C@@H](O)[C@H](O[C@H]3OC(CNCCOCCONC(=N)N)=CC[C@H]3N)[C@@H](N)C[C@H]2NC(=O)[C@@H](O)CCN)OC[C@]1(C)O [Compound 1]
E. coli ATCC 25922
  MIC: 2 µM (≈ 1.39 µg/mL)
E. coli ATCC BAA-2523
  MIC: 2 µM (≈ 1.39 µg/mL)
[1]
  MIC: 4 µM (≈ 2.78 µg/mL)
[2]
  CAP amplitude under click: consistent with the Control group
  hearing damage (CAP amplitude) at 16 kHz: no different from the Control group
  hearing damage to experimental animals (CAP amplitude, overall): significantly lower than that of Gentamicin and Plazomicin
[2]; 29 day
  CAP amplitude at 16 kHz: 381.646±20.895 uv
  CAP amplitude at 32 kHz: 79.420±7.000 uv
  hearing damage (CAP amplitude) at 32 kHz: 34.7%
  reduction of hearing damage at 32 kHz compared to Gentamicin: 39.6%
  reduction of hearing damage at 32 kHz compared to Plazomicin: 13.5%
Spiral ganglion neurons
  damage to spiral ganglion neurons (SGN density vs Control group): no damage to spiral ganglion neurons

Source: patent US12338263B2, “Antibacterial aminoglycoside derivatives” (priority 2019, dated 2025)
